Key:
[1] = test system: Retinal pigmented epithelium cells (ARPE-19); assay: Cell viability assay: protection of RPE cells against oxidative damage from TBHP; assay type: cell-based
Experimental: Cultured cells and reagents: Retinal pigmented epithelium cells (ARPE-19) were obtained from American Type Culture Collection (ATCC, Manassas, Va.) and cultured at 37° C. in 5% CO2. All chemicals were purchased from Sigma unless specified.
Cell viability assay: Cells were cultured and assayed for cell viability essentially as described previously (14). ARPE-19 cells were plated at 10,000 cells per well in a 96-well plate. The cells were grown for 18-20 hours, the medium discarded in aseptic conditions and replaced with fresh culture medium containing the indicated drug concentration. The plates were incubated for 24 hours at 37° C. in a 5% CO2 incubator in the presence of sulindac or Compound 9. To examine the treatment effects on oxidative damage to RPE cells, cells were washed and incubated in media without serum with various concentrations of tert-butyl hydroperoxide (TBHP) for an additional 24h. The culture medium was then discarded and the cells were thoroughly rinsed in PBS. Cell viability was determined by using the Cell Titer 96 Aqueous One Cell Proliferation Assay (Promega) according to the manufacturer's instructions. The assay utilizes a tetrazolium compound that is converted into a water-soluble formazan by the action of cellular NADH oxidase activity in metabolically active cells. The formazan was quantified by measuring the absorbance at 490 nm using a colorimetric microtiter plate reader (SpectraMax Plus; Molecular Devices).
In the present studies, a series of compounds were identified as having the ability to protect RPE cells against oxidative damage using tert-butyl hydroperoxide (TBHP), an organic peroxide, as an oxidizing agent (10).

PDE5 = PDE5 (Homo sapiens, UniProt O76074); assay: IMAP fluorescence polarization PDE assay, PDE5; assay type: biochemical; conditions: FIG. 5A
Experimental: (§1) PDE activity was measured using the IMAP fluorescence polarization PDE assay (Molecular Devices) in which the binding of hydrolyzed fluorescent cyclic nucleotide substrate to the IMAP reagent increases fluorescence polarization. Each well of a 96-well nonbinding plate contained 0.25 mg/mL of recombinant enzyme preparations. Enzymes were incubated with COMPOUND 9 or vehicle (DMSO) for 30 min at 30° C. before the addition of a substrate mixture containing 25 nmol/L of fluorescein-cGMP. The DMSO final concentration for each experiment was 2%. After 90 min of incubation at 30° C., the reaction was terminated by the addition of binding reagent. The maximum Fluorescence polarization was measured using a Synergy4 (BioTek) plate reader.

PDE10 = PDE10 (Homo sapiens, UniProt Q9Y233); assay: IMAP fluorescence polarization PDE assay, PDE10; assay type: biochemical; conditions: FIG. 5B
Sequence of PDE10 (Q9Y233 whole entry): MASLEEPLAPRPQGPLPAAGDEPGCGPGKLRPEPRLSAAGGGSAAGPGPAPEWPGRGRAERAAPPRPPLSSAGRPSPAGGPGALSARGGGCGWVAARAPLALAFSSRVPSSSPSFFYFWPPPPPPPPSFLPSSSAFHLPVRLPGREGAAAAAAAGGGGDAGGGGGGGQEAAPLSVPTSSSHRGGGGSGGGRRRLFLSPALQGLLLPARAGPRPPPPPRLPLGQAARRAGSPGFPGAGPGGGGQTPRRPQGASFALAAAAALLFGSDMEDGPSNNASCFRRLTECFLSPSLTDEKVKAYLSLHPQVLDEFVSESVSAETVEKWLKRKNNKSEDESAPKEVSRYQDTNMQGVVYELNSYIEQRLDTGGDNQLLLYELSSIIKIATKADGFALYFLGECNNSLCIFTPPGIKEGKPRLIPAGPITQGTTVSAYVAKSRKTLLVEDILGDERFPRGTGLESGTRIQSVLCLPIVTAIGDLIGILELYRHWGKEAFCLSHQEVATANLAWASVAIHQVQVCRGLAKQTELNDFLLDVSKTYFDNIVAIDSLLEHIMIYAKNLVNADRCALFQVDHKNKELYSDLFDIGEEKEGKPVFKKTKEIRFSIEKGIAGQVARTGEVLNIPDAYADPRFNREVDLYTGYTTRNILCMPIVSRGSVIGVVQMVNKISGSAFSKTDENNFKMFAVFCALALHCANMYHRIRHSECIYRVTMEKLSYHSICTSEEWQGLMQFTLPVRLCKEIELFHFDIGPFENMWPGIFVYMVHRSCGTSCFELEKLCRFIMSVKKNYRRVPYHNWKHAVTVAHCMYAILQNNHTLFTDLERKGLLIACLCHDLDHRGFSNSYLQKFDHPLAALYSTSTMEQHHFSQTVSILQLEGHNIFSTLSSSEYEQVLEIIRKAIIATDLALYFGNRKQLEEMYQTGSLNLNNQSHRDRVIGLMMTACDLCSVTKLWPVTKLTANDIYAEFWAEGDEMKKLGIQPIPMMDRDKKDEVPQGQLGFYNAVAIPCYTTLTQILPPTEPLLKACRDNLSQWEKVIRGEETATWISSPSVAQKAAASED
Experimental: as §1

[2] = test system: PDE isozymes 1-11 (except PDE6); assay: IMAP fluorescence polarization PDE assay, panel of PDE isozymes; assay type: biochemical; conditions: 25 μM; FIG. 5C
Experimental: as §1

[3] = test system: rat intact hearts (Langendorff model); assay: Langendorff model of ischemia/reperfusion injury, LDH release; assay type: in vivo, Sprague Dawley rats
Experimental: The ex vivo Langendorff procedure is a well-established preparation used to investigate heart physiology, ischemia/reperfusion injury, and other cardiovascular insults (23, 24; also see, e.g., reference 22). Sprague Dawley rats (275-325g) were administered either no drug or Compound 9 daily (at 0.7 mg/kg) for a total of two days (two administrations in total). Forty-eight hours after the start of drug exposure, hearts were removed and exposed to 45 min no flow ischemia and 2 h reperfusion in the Langendorff model (hearts were first equilibrated in KHB buffer for 10 min and then subjected to 45 min ischemia followed by 2 h reperfusion with KHB buffer), in the absence of drug.
In LDH and TTC assays for the Langendorff Preparation, coronary effluent samples (500 μL) from the Langendorff preparation were obtained upon attachment of excised heart, every 15 min before ischemia, immediately after 45 min ischemia, and at 15 min intervals during reperfusion. LDH was measured (using a Cytotox-96 nonradioactive cytotoxicity assay kit (Promega), with the absorbance read at 490 nm). Immediately upon completion, the heart was sliced into 2-mm cross-sectional pieces and slices were incubated for 30 min with 1% 2,3,5-triphenyl tetrazolium chloride (TTC) stain in Krebs-Henseleit buffer (KHB) (pH=7.4) at 37° C. to distinguish between viable (red) and nonviable (white) tissue. Tissue slices were stored overnight in 10% formaldehyde before measurement of infarct size using NIH-Image J software.
The protective (preconditioning) effect of Compound 9 was evaluated in an art-recognized Langendorff model of ischemia/reperfusion injury. Compound 9 was administered via i.p. injection to test animals daily for two days, and animal hearts were then removed for performance of the Langendorff procedure (described above and known in the art).

[4] = 0.7 mg/kg i.p. daily for 48 h, FIG. 9

Structure (SMILES): COc1cc2c(cc1OC)/C(=C\c1cc(OC)c(OC)c(OC)c1)C(C)=C2CC(=O)O [Compound 9, (Z)-2-(5,6-dimethoxy-2-methyl-1-(3,4,5-trimethoxybenzylidene)-1H-inden-3-yl)acetic acid]
- Cyto-protective activity* ([1]; RPE cells, TBHP as oxidizing agent, relative to Sulindac): active
- Protective effect on RPE cells in combination with PKG inhibitor Rp-Br-8-PET-cGMPS ([1]; Rp-Br-8-PET-cGMPS 500 μM, 24 h, FIG. 6C): reduces the protection
- Lowest concentration found effective in protecting RPE cells ([1]; TBHP, FIG. 3): 10 µM
- Protective effect on RPE cells in combination with PKC inhibitor chelerythrine ([1]; chelerythrine 2 μM, 24 h, FIG. 6B): significantly reduces the protective effect
- TBHP concentration up to which complete protection of RPE cells was provided ([1]; compound at 25 μM, FIG. 2): ≤ 400 µM
- Times more active than sulindac in protecting RPE cells and other cells from oxidative damage ([1]; on a molar basis, stated as 'may be'): at least 10 times
- Fold lower effective concentration relative to sulindac (RPE cell protection) ([1]; sulindac 200 μM, Compound 10 at 25 μM, Compound 9 at 10 μM): 20 ×
- Protective effect on RPE cells in combination with ROS scavenger tiron ([1]; tiron 1 mM, 24 h, FIG. 6A): attenuates the protective effect
- IC50 (PDE5): ~32 µM
- IC50 (PDE10): ~7 µM
- Inhibition of other cGMP PDE isozymes, including PDE 1, 2, 3 and 11 [2]: lower inhibitory effects
- PDE isozyme selectivity [2]: most active against PDE5 and 10
- Protective effect during the 45 min ischemia phase [3, 4]: robust protective effect
- Protective effect during the 2 h reperfusion phase [3, 4]: robust protective effect
- LDH levels vs no drug control ([3]; 2 h reperfusion, 0.7 mg/kg daily for 48 h, FIG. 7): decrease in LDH levels
- Levels of LDH released vs no drug ([3]; after 45 min no flow ischemia, 0.7 mg/kg daily for 48 h, FIG. 7): significantly lower
